The values below come from US6337318B1, “Sustained GnRH peptide-release formulation” (Peptech, Ltd., priority 1996, dated 2002).

The test system of series [1] is prostate cancer in rats. Particulars: controlled dose over 30 days vs equivalent or double daily doses of free peptide; cited from earlier work.
The subject of series [2] is estradiol levels. To be noted: female patients; provided peptide delivered so as to maintain a constant minimum blood level; cited from earlier work.
Series [3] relates to plasma testosterone. Description: suppression of plasma testosterone levels in implanted dogs. Format: in vivo, dog. To be noted: 5% deslorelin; for duration of suppression of testosterone levels: rods of 93% stearin, 2% lecithin, 0.5, 1 or 2 x 120 mg rod containing 6 mg deslorelin. The procedure: (§1) Stearin (supplied as free flowing beads of 1 mm or less in diameter made by Vandenberg Foods) and lecithin (supplied as a deep brown viscous syrup from R P Schearer) were hand mixed using a spatula in a small beaker. The deslorelin was then added and thoroughly mixed into the excipients. The mixed material was transferred to the barrel of a ram extruder that has a 1 mm nozzle attached and is equilibrated to 55° C. The ram extrusion pressure is 40 psi. The ram was attached and pressure applied until the product began to extrude. At this point the pressure was backed off and the product allowed to reach 55° C. The product was then extruded-3 g over a 30 second period. The resulting extrudate was allowed to cool and then broken up and re-extruded through a 1 mm nozzle. This step was included to ensure uniformity of content throughout the matrix. The 1 mm nozzle was then replaced with a 2.3 mm diameter nozzle. The same product temperature equilibration procedure was conducted prior to extrusion. The product was then extruded and after cooling the long rods produced could be sectioned into lengths of the required weight.
(§2) The rods produced were implanted into male dogs using standard techniques.
Stearin beads (ADMUL PO 58 from Quest International Australasia Limited) and lecithin (Topcithin 300, Bronson & Jacobs, Australia) were hand mixed using a spatula in a small beaker. The deslorelin was then added and thoroughly mixed into the excipients. The material was transferred to the barrel of a ram extruder that has a 1 mm nozzle attached and is equilibrated to 55.8° C. The ram extrusion pressure is 40 psi. The ram was then attached and pressure applied until the product began to extrude. At this point the pressure was backed off and the product allowed to reach 55.8° C. The product was then extruded-3 g over a 30 second period. The resulting extrudate was allowed to cool and then broken up before re-extruding the mixed granulation through the 1 mm nozzle at 58.3° C. and into an injectable mould that generates a finished rod product that is 2.3 mm in diameter and approximately 25 mm long. […]

Series [4] is described as follows: in vitro release of deslorelin from the rods. Format: physicochemical. To be noted: rods of 94% stearin, 5% deslorelin (on an active basis), 1% lecithin. How it is done: Typically, the formulation of the first aspect will release the peptide agonist or analogue, in vitro, into phosphate buffered saline (PBS: pH 7.3, prepared by dissolving 8.00 g of sodium chloride, 1.00 g di-sodium hydrogen phosphate anhydrous, 0.40 g sodium dihydrogen phosphate dihydrate (0.31 g if anydrous), and 0.05 g sodium azide in 1 litre of deionised water), at 37° C. at a rate of about 2-350 μg/day for at least 200 days but preferably for at least 300 days.
as §1, with “The same product temperature equilibration procedure was conducted prior to extrusion. The product was then extruded and after cooling the long rods produced could be sectioned into lengths of the required weight.” left out

Series [5] relates to male dogs. Kind of series: testicular size in male dogs implanted with rods. Format: in vivo, dog. To be noted: implanted rods of 94% stearin, 5% deslorelin, 1% lecithin. How it is done: as §1, §2
In series [6] the test system is advanced prostatic cancer. Particulars: monthly subcutaneous injections, advanced prostatic cancer patients; cited from earlier work.

For the compound “5-oxo-L-prolyl-L-histidyl-L-tryptophyl-L-seryl-L-tyrosyl-D-tryptophyl-L-leucyl-L-arginyl-L-prolylglycinamide. [triptorelin]”, in series [1], the “suppression of prostate tumour weight, microencapsulated form versus daily subcutaneous free peptide” value was “more effective” and the “suppression of serum testosterone levels, microencapsulated form versus daily subcutaneous free peptide” value is “more effective”.
Turning to `CCNC(=O)[C@@H]1CCCN1C(=O)[C@H](CCCN=C(N)N)NC(=O)[C@H](CC(C)C)NC(=O)[C@@H](Cc1c[nH]c2ccccc12)NC(=O)[C@H](Cc1ccc(O)cc1)NC(=O)[C@H](CO)NC(=O)[C@H](Cc1c[nH]c2ccccc12)NC(=O)[C@H](Cc1cnc[nH]1)NC(=O)[C@@H]1CCC(=O)N1` [deslorelin, [6-D-tryptophan-9-(N-ethyl-L prolinamide)-10-deglycinamide]], the “suppression of estradiol levels” value in series [2] is “effective”. Moreover, the “duration of suppression of testosterone levels” value in series [3] (bitches) is recorded as “at least 5 months”; in series [3] (dogs (male)), at least 12 months. Besides, the “duration of suppression of plasma testosterone levels” value in series [3] (male dogs, implanted rods of 94% stearin, 1% lecithin) is “at least 4 months”. The “duration of release of deslorelin from the rods in vitro” value in series [4] is “up to 250 days”. Besides, the “duration of continued decline in testicular size” value in series [5] is listed as “at least 5 months”.
Take `CC(C)C[C@H](NC(=O)[C@@H](COC(C)(C)C)NC(=O)[C@H](Cc1ccc(O)cc1)NC(=O)[C@H](CO)NC(=O)[C@H](Cc1c[nH]c2ccccc12)NC(=O)[C@H](Cc1cnc[nH]1)NC(=O)[C@@H]1CCC(=O)N1)C(=O)N[C@@H](CCCNC(=N)N)C(=O)N1CCC[C@H]1C(=O)NNC(N)=O` [goserelin, 3-[5 oxo-L-prolyl-L-tryptophyl-L-seryl-L-tyrosyl-(3-O-tert-butyl)-D-seryl-L-leucyl-L-arginyl-L-prolyl] cabazamide acetate.]: in series [6], the “efficacy compared with orchiectomy” value is listed as “as effective as orchiectomy” and the tolerability entry is reported as “well tolerated”.
